Results from patent publication US12172989B2, “Histone acetyltransferase (HAT) inhibitor and use thereof” (SHANGHAI INSTITUTE OF MATERIA MEDICA, CHINESE ACADEMY OF …, priority 2018, dated 2024).

Molecular target: T1, histone acetyltransferase p300 (Homo sapiens, UniProt Q09472)
T1 construct: purchased BPS Corporation 50071
T1 sequence (Q09472 1284-1673 limits assumed): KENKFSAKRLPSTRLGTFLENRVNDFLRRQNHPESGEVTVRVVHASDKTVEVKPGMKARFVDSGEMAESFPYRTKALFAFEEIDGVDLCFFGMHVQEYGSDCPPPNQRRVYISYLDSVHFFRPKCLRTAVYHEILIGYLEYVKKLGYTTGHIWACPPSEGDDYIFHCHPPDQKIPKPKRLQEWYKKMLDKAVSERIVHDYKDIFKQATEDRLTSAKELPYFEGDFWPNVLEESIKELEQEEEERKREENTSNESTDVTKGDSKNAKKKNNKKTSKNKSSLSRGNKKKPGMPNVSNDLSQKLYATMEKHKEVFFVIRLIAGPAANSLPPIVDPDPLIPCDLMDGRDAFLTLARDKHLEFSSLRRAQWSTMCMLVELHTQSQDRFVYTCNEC
Experiment: Histone acetyltransferase (p300) activity assay (radioisotope, [3H]-Ac-CoA)
Assay type: biochemical
Settings: p300 0.05 nM; histone peptide 600 nM, [3H]-Ac-CoA 250 nM; 60 min at room temperature; read-out: Inhibition rate IC50
Method: The reaction was finally terminated with Ac-CoA (Sigma, Cat. No. A2056) without isotope labeling. If the activity of the acetyltransferase p300 was inhibited, the isotope signal cannot be detected on the substrate polypeptide. Therefore, the inhibitory activity of the compound against the acetyltransferase p300 was evaluated.
In the enzyme reaction system, 200 nL of a diluted compound (100% DMSO) was first transferred to a test plate using Echo, where the final concentration of the compound in the enzyme reaction system ranges from 0.25 to 5000 nM. Then 10 μL/well of p300 protein (final concentration of 0.05 nM) was transferred therein, and incubated with the compound for 15 min at room temperature. Then 10 μL/well of a substrate mixture (final concentrations of histone peptide and [^3H]—Ac-CoA were 600 nM and 250 nM, respectively) was added to start the enzyme-catalyzed reaction, and incubated at room temperature for 60 min. Then 10 µL/well of a 250 μM cold Ac-CoA solution was added to stop the reaction. Finally 25 μL/well of the reaction solution was transferred to a 384-well Flashplate (Perkin Elmer, Cat. No. SMP410A001PK), and incubated at room temperature for 1 h. The resultant was washed with double distilled water+0.1% Tween-20 three times. The signal value was read by using Microbeta. The data was analyzed by using GraphPad Prism 5.0 software to obtain IC50.

| SMILES | IC50 [nM] |
| --- | --- |
| CNC(=O)Nc1cc2c(cc1F)C1(CC2)OC(=O)N(CC(=O)N2Cc3ccc(F)cc3CC[C@H]2C2CC2)C1=O (stereo partly drawn) [ZB-P-31] | < 5 |
| CNC(=O)Nc1ccc2c(c1)CC[C@]21OC(=O)N(CC(=O)N2Cc3cc(F)ccc3OC[C@@H]2C2CC2)C1=O [SYY-B030-1] | 230 |
| CNC(=O)Nc1ccc2c(c1)CC[C@]21OC(=O)N(CC(=O)N2Cc3ccncc3CC[C@H]2C2CC2)C1=O [SYY-B097-1] | 42.3 |
| CNC(=O)Nc1ccc2c(c1)CC[C@]21OC(=O)N(CC(=O)N2Cc3cnccc3CC[C@H]2C2CC2)C1=O [SYY-B136-1] | < 10 |
| CNC(=O)Nc1ccc2c(c1)CC[C@]21OC(=O)N(CC(=O)N2Cc3sccc3OC[C@H]2C2CC2)C1=O [SYY-B100-1] | 20.6 |
| CNC(=O)Nc1ccc2c(c1)CC[C@]21OC(=O)N(CC(=O)N2Cc3ccccc3CC[C@@H]2C2CC2)C1=O [SYY-B017-1] | 640 |
| CNC(=O)Nc1ccc2c(c1)CCC21NC(=O)N(CC(=O)N2Cc3ccc(F)cc3CC[C@@H]2C2CC2)C1=O (stereo partly drawn) [SYY-B034] | > 100 |
| CNC(=O)Nc1ccc2c(c1)CC[C@@]21OC(=O)N(CC(=O)N2Cc3cnccc3CC[C@H]2C2CC2)C1=O [SYY-B136-2] | < 10 |
| CNC(=O)Nc1ccc2c(c1)OCC21NC(=O)N(CC(=O)N2Cc3cc(F)ccc3OC[C@H]2C2CC2)C1=O (stereo partly drawn) [SYY-B156] | < 30 |
| CNC(=O)Nc1ccc2c(c1)CC[C@@]21OC(=O)N(CC(=O)N2Cc3ccccc3CC[C@@H]2C2CC2)C1=O [SYY-B017-2] | 270 |
| NC1(C(=O)Nc2ccc3c(c2)CC[C@]32OC(=O)N(CC(=O)N3Cc4ccc(F)cc4CC[C@@H]3C3CC3)C2=O)CCC1 [SYY-B040-1] | 130 |
| NC1(C(=O)Nc2ccc3c(c2)CC[C@]32OC(=O)N(CC(=O)N3Cc4ccc(F)cc4CC[C@@H]3C3CC3)C2=O)CC1 [SYY-B036-1] | 180 |
| CC(C)(N)C(=O)Nc1ccc2c(c1)CC[C@]21OC(=O)N(CC(=O)N2Cc3ccc(F)cc3CC[C@@H]2C2CC2)C1=O [SYY-B037-2] | > 100 |
| Cn1cc(-c2ccc3c(c2)OCC32NC(=O)N(CC(=O)N3Cc4cc(F)ccc4OC[C@H]3C3CC3)C2=O)cn1 (stereo partly drawn) [SYY-B110] | < 10 |
| Cn1cc(-c2ccc3c(c2)CCC32NC(=O)N(CC(=O)N3Cc4ccc(F)cc4CC[C@@H]3C3CC3)C2=O)cn1 (stereo partly drawn) [SYY-B044] | > 50 |
| CNC(=O)Nc1ccc2c(c1)CC[C@@]21OC(=O)N(CC(=O)N2Cc3sccc3OC[C@H]2C2CC2)C1=O [SYY-B100-2] | 16.8 |
| CNC(=O)Nc1ccc2c(c1)CCC21NC(=O)N(CC(=O)N2Cc3cc(F)c(F)cc3CC[C@H]2C2CC2)C1=O (stereo partly drawn) [SYY-B088] | < 10 |
| CNC(=O)Nc1ccc2c(c1)CC[C@]21OC(=O)N(CC(=O)N2Cc3ccsc3CC[C@H]2C2CC2)C1=O [SYY-B102-1] | 13.9 |
| Cn1cc(-c2ccc3c(c2)C(F)C[C@]32NC(=O)N(CC(=O)N3Cc4cc(F)ccc4OC[C@H]3C3CC3)C2=O)cn1 (stereo partly drawn) [SYY-B132-2] | < 10 |
| Cn1cc(-c2ccc3c(c2)S(=O)(=O)C[C@]32NC(=O)N(CC(=O)N3Cc4cc(F)ccc4OC[C@H]3C(F)(F)F)C2=O)cn1 [SYY-B130] | < 10 |
| CNC(=O)Nc1ccc2c(c1)CC[C@]21OC(=O)N(CC(=O)N2Cc3ncccc3CC[C@H]2C2CC2)C1=O [SYY-B095-1] | 11.7 |
| CNC(=O)Nc1ccc2c(c1)CC[C@]21OC(=O)N(CC(=O)N2Cc3ccccc3CC[C@@H]2C(F)(F)F)C1=O [SYY-B028-1] | 1100 |
| CNC(=O)Nc1ccc2c(c1)CC[C@@]21OC(=O)N(CC(=O)N2Cc3ncccc3CC[C@H]2C2CC2)C1=O [SYY-B096-2] | 7.4 |
| Cn1cc(-c2ccc3c(n2)CCC32NC(=O)N(CC(=O)N3Cc4cc(F)ccc4OC[C@H]3C(F)(F)F)C2=O)cn1 (stereo partly drawn) [SYY-B165] | < 20 |

| SMILES | IC50 [nM] |
| --- | --- |
| CNC(=O)Nc1ccc2c(c1)CC[C@@]21OC(=O)N(CC(=O)N2Cc3cccnc3CC[C@H]2C2CC2)C1=O [SYY-B081-2] | 6.8 |
| CNC(=O)Nc1ccc2c(c1)CC[C@]21OC(=O)N(CC(=O)N2Cc3sc(C)c(C)c3CC[C@H]2C2CC2)C1=O [SYY-B116-1] | 140 |
| CNC(=O)Nc1ccc2c(c1)COCC21NC(=O)N(CC(=O)N2Cc3cc(F)ccc3OC[C@H]2C2CC2)C1=O (stereo partly drawn) [SYY-B106] | < 20 |
| CCC[C@H]1CCc2ccccc2CN1C(=O)CN1C(=O)O[C@]2(CCc3cc(NC(=O)NC)ccc32)C1=O [SYY-B024-1] | 47 |
| CNC(=O)Nc1ccc2c(c1)CC[C@@]21OC(=O)N(CC(=O)N2Cc3ccccc3CC[C@@H]2C(C)C)C1=O [SYY-B020-2] | 45 |
| NC1(C(=O)Nc2ccc3c(c2)CC[C@@]32OC(=O)N(CC(=O)N3Cc4ccc(F)cc4CC[C@@H]3C3CC3)C2=O)CCC1 [SYY-B040-2] | 160 |
| CNC(=O)Nc1ccc2c(c1)CC[C@]21OC(=O)N(CC(=O)N2Cc3ccc(F)cc3CC[C@@H]2C)C1=O [SYY-B022-1] | 54 |
| CNC(=O)Nc1ccc2c(c1)CC[C@@]21OC(=O)N(CC(=O)N2Cc3ccc(F)cc3CC[C@@H]2C)C1=O [SYY-B022-2] | 12 |
| Cn1cc(-c2ccc3c(c2)C(O)C[C@]32NC(=O)N(CC(=O)N3Cc4cc(F)ccc4OC[C@H]3C3CC3)C2=O)cn1 (stereo partly drawn) [SYY-B170-2] | < 20 |
| CNC(=O)Nc1ccc2c(c1)CC[C@@]21OC(=O)N(CC(=O)N2Cc3sc(C)c(C)c3CC[C@H]2C2CC2)C1=O [SYY-B116-2] | 2 |
| CNC(=O)Nc1ccc2c(c1)CC[C@]21OC(=O)N(CC(=O)N2Cc3cc(F)c(F)cc3CC[C@H]2C2CC2)C1=O [SYY-B090-1] | 1.37 |
| CNC(=O)Nc1cc2c(cc1F)C1(CC2)NC(=O)N(CC(=O)N2Cc3ccc(F)cc3CC[C@H]2C2CC2)C1=O (stereo partly drawn) [ZB-P-30] | < 10 |
| CNC(=O)Nc1ccc2c(c1)CC[C@@]21OC(=O)N(CC(=O)N2Cc3ccc(F)cc3CC[C@@H]2C(F)(F)F)C1=O [SYY-B032-2] | 37 |
| Cn1cc(-c2ccc3c(c2)CCC32OC(=O)N(CC(=O)N3Cc4sccc4OC[C@H]3C(F)(F)F)C2=O)cn1 (stereo partly drawn) [SYY-B144] | < 50 |
| CNC(=O)Nc1ccc2c(c1)CC[C@@]21OC(=O)N(CC(=O)N2Cc3sc(C)c(C)c3OC[C@H]2C2CC2)C1=O [SYY-B118-2] | 6.6 |
| CNC(=O)Nc1ccc2c(c1)CC[C@]21OC(=O)N(CC(=O)N2Cc3cc(F)ccc3OC[C@H]2C(F)(F)F)C1=O [SYY-B057-1] | 8.9 |
| CC(C)(N)C(=O)Nc1ccc2c(c1)CC[C@@]21OC(=O)N(CC(=O)N2Cc3ccc(F)cc3CC[C@@H]2C2CC2)C1=O [SYY-B038-2] | > 100 |
| CNC(=O)Nc1ccc2c(c1)CC[C@@]21OC(=O)N(CC(=O)N2Cc3cc(F)ccc3OC[C@@H]2C2CC2)C1=O [SYY-B030-2] | 230 |
| CNC(=O)Nc1ccc2c(c1)COCC21OC(=O)N(CC(=O)N2Cc3cc(F)ccc3OC[C@H]2C2CC2)C1=O (stereo partly drawn) [SYY-B112] | < 10 |
| Cn1cc(-c2cc3c(cn2)C2(CC3)NC(=O)N(CC(=O)N3Cc4cc(F)ccc4OC[C@H]3C(F)(F)F)C2=O)cn1 (stereo partly drawn) [SYY-B161] | < 100 |
| CNC(=O)Cn1cc(-c2ccc3c(c2)CCC32NC(=O)N(CC(=O)N3Cc4ccc(F)cc4CC[C@@H]3C3CC3)C2=O)cn1 (stereo partly drawn) [SYY-B046] | > 50 |
| CNC(=O)Nc1ccc2c(c1)CC[C@@]21OC(=O)N(CC(=O)N2Cc3ccncc3CC[C@H]2C2CC2)C1=O [SYY-B097-2] | 4 |
| CNC(=O)Nc1ccc2c(c1)CCC21NC(=O)N(CC(=O)N2Cc3ccsc3OC[C@H]2C2CC2)C1=O (stereo partly drawn) [SYY-B122] | < 10 |
| CNC(=O)Nc1ccc2c(c1)CC[C@]21OC(=O)N(CC(=O)N2Cc3ccccc3CC[C@@H]2C(C)C)C1=O [SYY-B020-1] | 200 |
